In PMC3855626 (Biochemistry, 2013):
Several values for one entry are separate records, joined by “and”; a condition that tells them apart may be missing. Equal values may be shown once. Marks after values point to notes of the source that are not given here.

Columns and labels:
M2 wild type = M2 wild type (Homo sapiens, UniProt P08172); assay type: binding
wild type M4 receptors = assay type: binding, human
M3 D114N/D148N [1] = target: T1, M3 D114N/D148N (Homo sapiens, UniProt P20309, D114N/D148N)
M2 D103N = M2 D103N (Homo sapiens, UniProt P08172, D103N); assay type: binding
M2 D69N = assay type: binding, human
M2 D103N + M2 D69N = assay type: binding, human
M2 D69N/D103N [2] = target: T2, M2 D69N/D103N (Homo sapiens, UniProt P08172, D103N/D69N); assay type: binding
M3 D148N = assay type: binding, human
M3 D114N = assay type: binding, human
M3 D148N + M3 D114N = assay type: binding, human
M3 D114N/D148N [3] = target: T1, M3 D114N/D148N; assay type: binding
M4 D112N = assay type: binding, human
M4 D78N = assay type: binding, human
M4 D1 12N + M4 D78N = assay type: binding, human
M4 D78N/D112N [4] = target: T3, M4 D78N/D112N (Homo sapiens, UniProt P08173, D112N/D78N); assay type: binding
wild type M4 receptor = wild type M4 receptor (Homo sapiens, UniProt P08173); assay: biochemical; assay type: binding
M2 D69N/D103N [5] = target: T2, M2 D69N/D103N; assay type: binding; remark: listed apart in the source
M4 D78N/D112N [6] = target: T3, M4 D78N/D112N; assay type: binding; remark: listed apart in the source
M2 D69N/D103N [7] = target: T2, M2 D69N/D103N; assay: biochemical; assay type: binding
M4 D78N/D112N [8] = target: T3, M4 D78N/D112N; assay: biochemical; assay type: binding
[9] = target: wild type M1 muscarinic receptors (Homo sapiens, UniProt P11229); assay type: binding
[10] = target: wild type M2 muscarinic receptors (Homo sapiens, UniProt P08172); assay type: binding
[11] = test system: cerebral muscarinic receptors; assay type: binding, rat
M3 receptors = assay type: binding, human
M4 receptors = assay type: binding, human
[12] = test system: M1 – M4 muscarinic receptors; assay type: binding, human
guinea pig ileum = settings: cited from earlier work
[13] = read-out: inhibition of [3H]NMS binding

T2 sequence (P08172 whole entry D69N/D103N, looked up): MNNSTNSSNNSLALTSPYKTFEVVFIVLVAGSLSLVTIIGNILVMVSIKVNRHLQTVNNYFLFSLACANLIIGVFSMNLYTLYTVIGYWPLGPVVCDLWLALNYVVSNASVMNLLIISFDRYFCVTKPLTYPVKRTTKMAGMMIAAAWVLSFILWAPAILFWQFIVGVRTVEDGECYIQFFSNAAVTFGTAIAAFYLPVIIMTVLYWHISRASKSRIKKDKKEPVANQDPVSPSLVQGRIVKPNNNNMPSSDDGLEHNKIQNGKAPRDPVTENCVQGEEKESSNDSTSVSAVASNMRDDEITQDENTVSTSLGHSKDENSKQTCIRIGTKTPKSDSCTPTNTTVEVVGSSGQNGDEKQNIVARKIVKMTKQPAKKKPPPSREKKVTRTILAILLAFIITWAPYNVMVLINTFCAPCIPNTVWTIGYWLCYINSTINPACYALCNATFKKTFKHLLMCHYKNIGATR
T3 sequence (P08173 whole entry D78N/D112N, looked up): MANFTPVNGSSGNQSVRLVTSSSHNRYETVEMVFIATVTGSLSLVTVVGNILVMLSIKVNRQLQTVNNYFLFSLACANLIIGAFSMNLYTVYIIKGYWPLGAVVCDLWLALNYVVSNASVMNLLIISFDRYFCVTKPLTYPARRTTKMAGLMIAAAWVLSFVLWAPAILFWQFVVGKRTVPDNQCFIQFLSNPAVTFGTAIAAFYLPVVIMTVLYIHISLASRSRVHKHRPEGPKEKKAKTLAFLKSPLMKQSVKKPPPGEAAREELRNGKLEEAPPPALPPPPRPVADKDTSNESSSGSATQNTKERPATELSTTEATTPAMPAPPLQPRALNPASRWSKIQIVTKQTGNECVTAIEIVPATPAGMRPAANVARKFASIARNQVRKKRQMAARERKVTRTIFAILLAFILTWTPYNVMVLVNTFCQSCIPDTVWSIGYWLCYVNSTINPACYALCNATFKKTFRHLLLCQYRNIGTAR
Sequence of wild type M4 receptor (P08173 whole entry): as the sequence (P08173 whole entry D78N/D112N, looked up) above, with N78D, N112D counted along it
Sequence of M2 wild type (P08172 whole entry): as the sequence (P08172 whole entry D69N/D103N, looked up) above, with N69D, N103D counted along it
T1 sequence (P20309 whole entry D114N/D148N, looked up): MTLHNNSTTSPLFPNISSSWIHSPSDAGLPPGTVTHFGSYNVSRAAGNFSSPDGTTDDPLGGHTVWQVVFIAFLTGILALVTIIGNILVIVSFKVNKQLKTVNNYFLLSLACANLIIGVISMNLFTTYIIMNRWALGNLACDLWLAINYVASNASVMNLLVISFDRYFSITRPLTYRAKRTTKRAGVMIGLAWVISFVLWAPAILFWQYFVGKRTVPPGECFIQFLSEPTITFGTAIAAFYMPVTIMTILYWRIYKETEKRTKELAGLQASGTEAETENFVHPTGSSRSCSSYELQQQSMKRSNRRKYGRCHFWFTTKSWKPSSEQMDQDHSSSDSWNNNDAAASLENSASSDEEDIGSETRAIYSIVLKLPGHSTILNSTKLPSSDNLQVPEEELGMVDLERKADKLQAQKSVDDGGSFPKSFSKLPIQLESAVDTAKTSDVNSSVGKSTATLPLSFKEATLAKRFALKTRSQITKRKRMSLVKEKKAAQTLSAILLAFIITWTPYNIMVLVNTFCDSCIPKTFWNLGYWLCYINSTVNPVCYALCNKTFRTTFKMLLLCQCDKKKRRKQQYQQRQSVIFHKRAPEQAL
Sequence of wild type M2 muscarinic receptors (P08172 whole entry): as the sequence (P08172 whole entry D69N/D103N, looked up) above, with N69D, N103D counted along it
Sequence of wild type M1 muscarinic receptors (P11229 whole entry): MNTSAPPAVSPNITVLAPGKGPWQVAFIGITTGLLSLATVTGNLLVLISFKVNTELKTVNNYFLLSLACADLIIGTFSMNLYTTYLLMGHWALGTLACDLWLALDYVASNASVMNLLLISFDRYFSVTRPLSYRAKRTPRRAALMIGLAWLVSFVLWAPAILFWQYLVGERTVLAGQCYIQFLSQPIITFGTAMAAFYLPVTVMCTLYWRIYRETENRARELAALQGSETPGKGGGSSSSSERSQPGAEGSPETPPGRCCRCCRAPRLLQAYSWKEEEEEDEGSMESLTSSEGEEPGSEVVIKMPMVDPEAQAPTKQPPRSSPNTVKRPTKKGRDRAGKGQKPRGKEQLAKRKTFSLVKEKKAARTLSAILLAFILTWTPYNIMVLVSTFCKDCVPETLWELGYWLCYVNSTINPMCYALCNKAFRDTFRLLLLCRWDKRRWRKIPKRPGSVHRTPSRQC
Sequence of M2 D103N (P08172 whole entry D103N, looked up): as the sequence (P08172 whole entry D69N/D103N, looked up) above, with N69D counted along it

CC(=O)OCC[N+](C)(C)C [Acetylcholine, acetylcholine]
Hill slope of competition curve (M2 wild type): 0.69 | affinity relative to the aziridinium ion of AChM (M2 wild type): about 15 fold | affinity relative to the aziridinium ion of AChM (wild type M4 receptors): five-fold higher affinity | Hill slope of competition curve (M3 D114N/D148N [1]): 0.56

CN(CC#CCOC(=O)Nc1cccc(Cl)c1)CCBr [BR384, 4-[(2-bromoethyl)methyl-amino]-2-butynyl N-(3-chlorophenyl)carbamate]
Δ log K1 (M2 D103N): 1.23 ± 0.26 | increase in affinity relative to wild type (M2 D69N): about 30 fold | Δ log K1 (M2 D69N): −1.39 ± 0.35 | Δ log K1 (M2 D103N + M2 D69N): −0.17 ± 0.43 | Δ log K1 (M2 D69N/D103N [2]): −0.25 ± 0.25 | Δ log K1 (M3 D148N): 1.17 ± 0.07 | increase in affinity relative to wild type (M3 D114N): ~5 fold | Δ log K1 (M3 D114N): −0.69 ± 0.02 | Δ log K1 (M3 D148N + M3 D114N): 0.48 ± 0.08 | Δ log K1 (M3 D114N/D148N [3]): 0.75 ± 0.12 | Δ log K1 (M4 D112N): 0.65 ± 0.13 | increase in affinity relative to wild type (M4 D78N): about 30 fold | Δ log K1 (M4 D78N): −1.27 ± 0.11 | Δ log K1 (M4 D1 12N + M4 D78N): −0.62 ± 0.17 | Δ log K1 (M4 D78N/D112N [4]): 0.69 ± 0.32 ^c | average estimate of k1 (wild type M4 receptor): 0.82 min⁻¹ | b (proportion of receptors that can bind [3H]NMS but not be alkylated) (wild type M4 receptor): 7.7 ± 1.8% and 7.7% | k1 (rate constant for alkylation) (wild type M4 receptor): 0.93 ± .020 min⁻¹ | rate constant (k1) (wild type M4 receptor): 0.99 ± 0.045 min⁻¹ and 1.05 ± 0.10 min⁻¹ and 0.75 ± 0.06 min⁻¹ and 0.74 ± 0.086 min⁻¹ | Kd (wild type M4 receptor; average estimate of log K1): 8.71 µM | Kd (wild type M4 receptor; log K1 (dissociation constant of the aziridinium ion)): 8.91 µM | Kd (wild type M4 receptor; log dissociation constant (log K1)): 12.3 µM and 7.94 µM and 6.76 µM | alkylation (M2 D69N/D103N [5]): 48 ± 4.2% | alkylation (M4 D78N/D112N [6]): 44 ± 0.6% | IC50 (M2 D69N/D103N [7]): 28.8 µM | inhibition at 300 µM (M2 D69N/D103N [7]; [13]): 97 ± 1.3% | IC50 (M4 D78N/D112N [8]): 69.2 µM | inhibition at 300 µM (M4 D78N/D112N [8]; [13]): 88 ± 0.7% | receptors alkylated after adding the stopping solution [9]: 28% | receptors alkylated after adding the stopping solution [10]: 28% | rate of recovery of [3H]NMS binding [11]: negligible | maximum estimate of b (M3 receptors): 0.067 | maximum estimate of b (M4 receptors): 0.085 | affinity of the aziridinium ion relative to McN-A-343 [12]: four- to seven-fold higher affinity | contractile action (guinea pig ileum): lack of contractile action
